Test results reported in patent EP0188781A1, “1-Oxa-1-dethia-cephalosporin compounds and antibacterial agent comprising the same” (Merck & Co., Inc., priority 1984, dated 1986).

Columns and labels:
Type in all cases: cell-based
Proteus vulgaris GN76 = assay: Minimum inhibitory concentration (MIC) in vitro, antibacterial spectrum
[1] = tested on: Staphylococcus aureus Smith; assay: as above
Escherichia coli GN206 = assay: as above
Proteus rettgeri GN624 = assay: as above
[2] = tested on: Escherichia coli NIHJ JC-2; assay: as above
[3] = tested on: Serratia marcescens No. 2; assay: as above
[4] = tested on: Streptococcus faecalis ATCC8043; assay: as above
[5] = tested on: Pseudomonas aeruginosa MB3833; assay: as above
[6] = tested on: Pseudomonas aeruginosa E-2; assay: as above
Proteus mirabilis GN79 = assay: as above
[7] = tested on: Streptococcus faecalis W-75; assay: as above
[8] = tested on: Staphylococcus aureus 209 P JC-1; assay: as above
[9] = tested on: Streptococcus faecalis W-74; assay: as above
[10] = tested on: Streptococcus faecalis W-73; assay: as above
[11] = tested on: Salmonella typhimurium LT-2; assay: as above
[12] = tested on: Pseudomonas aeruginosa MB3829; assay: as above
Pseudomonas aeruginosa = assay: Antibacterial activity in vitro, summary in words; conditions: statement in words on Table 1
Text: Besides, the compounds of Examples 1, 2, 4, 5 and 7 advantageously are also effective against Pseudomonas aeruginosa.

SMILES | Minimum inhibitory concentration (MIC) (Proteus vulgaris GN76) | Minimum inhibitory concentration (MIC) [1] | Minimum inhibitory concentration (MIC) (Escherichia coli GN206) | Minimum inhibitory concentration (MIC) (Proteus rettgeri GN624) | Minimum inhibitory concentration (MIC) [2] | Minimum inhibitory concentration (MIC) [3] | Minimum inhibitory concentration (MIC) [4] | Minimum inhibitory concentration (MIC) [5] | Minimum inhibitory concentration (MIC) [6] | Minimum inhibitory concentration (MIC) (Proteus mirabilis GN79) | Minimum inhibitory concentration (MIC) [7] | Minimum inhibitory concentration (MIC) [8] | Minimum inhibitory concentration (MIC) [9] | Minimum inhibitory concentration (MIC) [10] | Minimum inhibitory concentration (MIC) [11] | Minimum inhibitory concentration (MIC) [12] | effective against Pseudomonas aeruginosa (Pseudomonas aeruginosa)
CO/N=C(\C(=O)N[C@@H]1C(=O)N2C(C(=O)O)=C(CSc3nc(=O)c(=O)[nH]n3C)CS[C@H]12)c1csc(N)n1 [Ceftriaxone, reference compound] | 0.025 | 3.13 | 0.78 | 0.39 | 0.10 | 0.10 | 3.13 | 50 | 100 | 0.025 | 1.56 | 1.56 | 100 | 100 | 0.05 | 12.5 | 
CO/N=C(\C(=O)N[C@@H]1C(=O)N2C(C(=O)O)=C(CSc3nc(=O)c(O)nn3C)CO[C@H]12)c1csc(N)n1 [Compound No. 3, (6R,7R)-7-[(Z)-2-(2-aminothiazol-4-yl)-2-(methoxyimino)acetamido]-3-(2,5-dihydro-6-hydroxy-2-methyl-5-oxo-1,2,4-triazin-3-yl) thiomethyl-l-oxa-l-dethia-ceph-3-em-4-carboxylic acid] | 0.10 | 0.78 | 3.13 | 0.39 | 0.10 | 0.39 | 12.5 | 25 | 50 | 0.05 | 0.39 | 0.78 | 50 | 50 | 0.05 | 12.5 | 
CCO/N=C(\C(=O)N[C@@H]1C(=O)N2C(C(=O)O)=C(CSc3nc(=O)c(O)nn3C)CO[C@H]12)c1csc(N)n1 [Compound No. 4, (6R,7R)-7-[(Z)-2-(2-aminothiazol-4-yl)-2-(ethoxyimino)acetamido]-3-(2,5-dihydro-6-hydroxy-2-methyl-5-oxo-l,2,4-triazin-3-yl) thiomethyl-l-oxa-l-dethia-ceph-3-em-4-carboxylic acid] | 0.05 | 1.56 | 1.56 | 0.39 | 0.10 |  | 25 | 6.25 | 25 | 0.025 | 0.20 | 0.78 |  | 100 | 0.10 |  | effective
Cn1nc(O)c(=O)nc1SCC1=C(C(=O)O)N2C(=O)[C@@H](NC(=O)C(NC=O)c3csc(N)n3)[C@H]2OC1 (stereo partly drawn) [Compound No. 8, (6R,7R)-7-[2-(2-aminothiazol-4-yl)-2-(form-amido)acetamido]-3-(2,5-dihydro-6-hydroxy-2-methyl-5-oxo-1,2,4-triazin-3-yl)thiomethyl-l-oxa-l-dethia-ceph-3-em-4-carboxylic acid] | 100 | 1.56 | 1.56 | 0.10 | 0.05 | 0.20 | 25 | 100 | 100 | 0.10 | 6.24 | 1.56 | 50 | 100 | 0.025 | 100 | 
CO[C@@]1(NC(=O)C(C(=O)O)c2ccc(O)cc2)C(=O)N2C(C(=O)O)=C(CSc3nnnn3C)CO[C@@H]21 (stereo partly drawn) [Latamoxef, reference compound] | 0.20 | 3.13 | 0.39 | 0.05 | 0.10 | 0.10 | 25 | 6.25 | 6.25 | 0.10 | 100 | 3.13 | 100 | 100 | 0.05 | 12.5 | 
